Test results reported in patent US20250003877A1, “Silyl Bridged Dyes” (priority 2021, published 2025).

Settings: for Brightness (ϕ × ε) / Em (nm) / Ex (nm) / ε (M^−1 cm^−1) / ϕ (quantum yield) / brighter than dimethylsilyl counterpart: PBS; for ϕ (quantum yield): pH 7.4; for brighter than dimethylsilyl counterpart: vs 001 (for 002, 009) or vs 016 (for 017)

| SMILES | Brightness (ϕ × ε) | Em (nm) | Ex (nm) | ε (M^−1 cm^−1) | ϕ (quantum yield) | brighter than dimethylsilyl counterpart [%] | red-shift compared to dimethylsilyl counterpart (vs 001 (for 007) or vs 020 (for 021, 022), excitation and emission) | quantum yield (pH 3 acetate buffer) |
| --- | --- | --- | --- | --- | --- | --- | --- | --- |
| CC[Si]1(CC)C2=CC(=[N+](C)C)C=CC2=C(c2ccccc2C)c2ccc(N(C)C)cc21 [Compound 002, N-(7-(Dimethylamino)-5,5-diethyl-10-(o-tolyl)dibenzo[b,e]silin-3(5H)-ylidene)-N-methylmethanaminium] | 58,540 | 664 | 648 | 164,900 M^−1 cm^−1 | 0.36 | 30 | – | – |
| C=C[Si]1(C)C2=CC(=[N+](C)C)C=CC2=C(c2ccccc2C)c2ccc(N(C)C)cc21 (centres unmarked) [Compound 003, N-(7-(Dimethylamino)-5-methyl-10-(o-tolyl)-5-vinyldibenzo[b,e]silin-3(5H)-ylidene)-N-methylmethanaminium] | 48,924 | 668 | 651 | 141,400 M^−1 cm^−1 | 0.35 | – | – | – |
| Cc1ccccc1C1=C2C=CC(=[N+](C)C)C=C2[Si](C)(c2ccccc2)c2cc(N(C)C)ccc21 (centres unmarked) [Compound 004, N-(7-(Dimethylamino)-5-methyl-5-phenyl-10-(o-tolyl)dibenzo[b,e]silin-3(5H)-ylidene)-N-methylmethanaminium] | 34,203 | 670 | 657 | 99,140 M^−1 cm^−1 | 0.35 | – | – | – |
| C=C[Si]1(c2ccccc2)C2=CC(=[N+](C)C)C=CC2=C(c2ccccc2C)c2ccc(N(C)C)cc21 (centres unmarked) [Compound 005, N-(7-(Dimethylamino)-5-phenyl-10-(o-tolyl)-5-vinyldibenzo[b,e]silin-3(5H)-ylidene)-N-methylmethanaminium] | 53,499 | 676 | 658 | 150,700 M^−1 cm^−1 | 0.36 | – | – | – |
| C=C[Si]1(C=C)C2=CC(=[N+](C)C)C=CC2=C(c2ccccc2C)c2ccc(N(C)C)cc21 [Compound 006, N-(7-(Dimethylamino)-10-(o-tolyl)-5,5-divinyldibenzo[b,e]silin-3(5H)-ylidene)-N-methylmethanaminium] | 56,671 | 672 | 657 | 158,300 M^−1 cm^−1 | 0.36 | – | – | – |
| Cc1ccccc1C1=C2C=CC(=[N+](C)C)C=C2[Si](c2ccccc2)(c2ccccc2)c2cc(N(C)C)ccc21 [Compound 007, N-(7-(Dimethylamino)-5,5-diphenyl-10-(o-tolyl)dibenzo[b,e]silin-3(5H)-ylidene)-N-methylmethanaminium] | 41,952 | 677 | 663 | 120,900 M^−1 cm^−1 | 0.35 | – | approximately 15 nm | – |
| Cc1ccccc1C1=C2C=CC(=[N+](C)C)C=C2[Si](C)(c2cccc(N(C)C)c2)c2cc(N(C)C)ccc21 (centres unmarked) [Compound 008, N-(7-(Dimethylamino)-5-(3-(dimethylamino)phenyl)-5-methyl-10-(o-tolyl)dibenzo[b,e]silin-3(5H)-ylidene)-N-methylmethanaminium] | 3700 | 668 | 651 | 154,200 M^−1 cm^−1 | 0.02 | – | – | 0.31 |
| Cc1ccccc1C1=C2C=CC(=[N+](C)C)C=C2[Si](C)(CCCCl)c2cc(N(C)C)ccc21 (centres unmarked) [Compound 009, N-(5-(3-Chloropropyl)-7-(dimethylamino)-5-methyl-10-(o-tolyl)dibenzo[b,e]silin-3(5H)-ylidene)-N-methylmethanaminium] | 64,113 | 665 | 650 | 180,600 M^−1 cm^−1 | 0.36 | 50 | – | – |
